{
  "source": "patent US20250136997A1",
  "about": "“COMPOSITIONS FOR SEQUESTERING ISOAMYL AMINE AND METHODS OF USE THEREFOR” (University of Louisville Research Foundation, Inc., priority 2023, published 2025)",
  "key": {"[1]": {"test": "Surface plasmon resonance (SPR) of biotin-labeled oligos with IAA", "assay_type": "binding", "conditions": "biotin labeled oligo on streptavidin sensor chip", "protocol": "Surface plasmon resonance (SPR). To identify the binding activity of the metabolite IAA and S100A8 promoter sequence, SPR experiments were conducted on an OPENSPR™ (Nicoya, Lifesciences, CA). Experiments were performed on a streptavidin sensor (Nicoya, Lifesciences). SPR was run at a flow rate of 20 μl/min using HBS running buffer (20 mM HEPES, 150 mM NaCl, pH 7.4). First, the streptavidin sensor chip was cleaned with octyl β-D-glucopyranoside (40 mM) and CHAPS (20 mM). 200 μl of biotin-conjugated oligos (1 μg/ml, Table 5) were injected on the sensor chip for 10 minutes until a stable resonance was obtained. After immobilization of bio-oligo, the surface was blocked with BSA (3%) in running buffer. After a stable signal was obtained, IAA (10 nM) was run over the immobilized bio-oligo until a stable resonance was obtained. A negative control test was also performed by injecting IAA onto a blank sensor chip to check for non-specific binding. The sensograms were analyzed using TraceDrawer kinetic analysis software."}, "[2]": {"test": "Single-strand gel shift (SSGS) assay", "assay_type": "binding", "conditions": "oligos (2 μM) incubated with IAA (10 μM), 15% PAGE", "protocol": "Single-strand gel shift (SSGS) assay. To identify the metabolite binding site of S100A8, we synthesized a series of oligonucleotides (oligos) (Eurofins Genomics LLC, KY) specific to the response putative IAA binding site at the promoter region of S100A8. The oligos ([…]) were incubated with […] of IAA at 37° C. for 30 minutes following electrophoresis on a 15% native PAGE without SDS in 0.5×TBE buffer. The oligos were stained with ethidium bromide ([…]) and visualized under ultraviolet (UV) light.\nGiven induction of bacterial metabolite IAA causes the degeneration of microglia by elevation of S100A8 at both the transcription and protein level, we hypothesized that IAA might directly target the promoter of S100A8 and regulate the expression of S100A8. Studying the interaction of metabolites, particularly small molecules, with nucleic acid is challenging due to a lack of appropriate tags for the metabolites. Because of this challenge, we developed a strategy raising the possibility to investigate the interaction of small molecules and nucleic acid.\nTo test our hypothesis, we first synthesized short single-DNA strains (around 60 mer length each) whose sequences spanned the promoter of S100A8 (FIG. 13A and Table 5). The site and sequence of the promoter and transcription start site (TSS) were determined according to the entire mRNA (Accession #NC_000069.7 (90,576,378 . . . 90,577,341)) and genomic sequence (Accession #L76381) from the NCBI nucleic acid database (FIG. 13A). These DNA oligos (2 μM) were incubated with IAA (10 μM) following native PAGE analysis (FIG. 4A). […] To define the accurate binding site of IAA, we synthesized 10 mer length DNA oligos covering the sequence of S100p1 (Table 5). Unfortunately, the 10 mer length oligo lost the conformational mobility shift in PAGE (FIG. 13C). We then tested the mobility shift with 20 mer oligos. […]"}, "[3]": {"test": "HPLC analysis of IAA and CA in serum and cerebrospinal fluid (CSF) of mice", "assay_type": "in vivo, mouse", "conditions": "aged mice, intravenous oligo, twice a week for 2 months"}, "[4]": {"test": "Morris water maze (MWM) test", "assay_type": "in vivo, mouse", "conditions": "aged mice, intravenous, twice a week for 2 months", "protocol": "Morris water maze (MWM) test. Mice were trained in a 122 cm diameter, 50 cm height open-field water maze with non-reflective interior surfaces. The pool water was filled with water maintained at 25±1° C. and mixed with non-toxic white tempera paint. Distinctive and extra-maze cues were marked on the wall at specific locations and were visible to the mice in the maze. Mice were removed from cages, placed into the water from quasi-random start points and allowed a maximum of 60 seconds to probe the escape platform. The inter interval of each trail remained for 15 seconds. For four consecutive days, four trials (training) were recorded each day with a final test on day 5 (FIG. 4A). Performance was evaluated by the mean escape latencies base on every training trial (Vorhees and Williams, 2006)."}, "[5]": {"test": "Interaction of S100p1-G and metabolite: streptavidin pull-down from BV2 cells and LC-MS", "assay_type": "cell-based, mouse", "conditions": "cell lysates", "protocol": "Interaction of S100p1-G and metabolite. Microglial BV2 cells (2×10^6) were transfected with biotinylated oligo S100p1-G or mutant using Lipofectamin RNAiMAX Reagent (Thermo Fisher) according to the manufacturer's instructions overnight at 37° C. […] of aged mouse fecal supernatant (from one-gram feces) was added into the cell growth medium. After six hours, the cells were collected in RIPA lysis buffer. […] of cell lysate was incubated with […] of DYNABEADS® Streptavidin beads (Thermo Fisher) at room temperature for 1 h. The bio-oligo complex was eluted with biotin (4 mg/ml)) in 25 mM Tris-HCL containing 0.3 M NaCl (PH 8.5) at 95° C. for 5 minutes. Metabolite analysis was performed with LC-MS."}, "microglial cells [6]": {"test_system": "microglial cells", "test": "Western blot of cleaved caspase-3 and cleaved PARP in ex vivo cultured microglial cells", "assay_type": "cell-based, mouse", "protocol": "Isolation of microglia, neuron, astrocytes, and oligodendrocytes from the brain. Mice were anaesthetized with a mixture of ketamine (16%) and xylazine (3%) by intraperitoneal injection and then sacrificed under basal conditions by transcardial perfusion with perfusion buffer (Ca^2+/Mg^2+ free HBSS containing 0.5 mM EGTA, 10 mM HEPES and 4.2 mM NaHCO3; pH 7.2). The perfused brain was removed and gently mechanically disaggregated with tweezers in dissociation buffer (HBSS containing 10 mM HEPES and 4.2 mM NaHCO3 supplemented with Type I collagenase (0.05%), Dispase II (25 mg/ml), DNase I (2.5 mg/ml), trypsin inhibitor ([…]); pH 7.5) followed by incubation at 37° C. for 1 hour. The tissue homogenate was centrifuged at 1,350×g for 5 minutes at 4° C. For the isolation of microglia, the digestion enzymes in the tissue homogenate were inactivated by addition of PBS/EDTA containing 5% fetal bovine serum (FBS) and the digested brain bits were triturated gently, passed over a 100 µm filter (Fisher Scientific) and centrifuged. […] The pellet of cells was rinsed in PBS. Any contaminating red blood cells (RBC) were lysed using RBC lysis buffer (Sigma) according to the manufacturer's instructions, rinsed twice with PBS and passed through a 40 µm filter (Fisher Scientific). Cells were then stained for CD11b and CD45 for flow cytometry analysis. The astrocytes were isolated from mouse cortices (n=10). The tissue homogenate was centrifuged at 800×g for 10 minutes at 4° C. following digestion with type II collagenase (1 mg/ml) and type I DNase (10 U/ml) in DMEM for 10 minutes. The cells pelleted by centrifugation were plated in a 100 mm culture dish coated with poly-L-ornithine (Sigma). For the isolation of oligodendrocytes, the glial cells above were cultured in specific media containing T3 and T4 (0.5 mM) as well as platelet-derived growth factor (PDGF, 10 ng/ml) to promote the growth of the different cell types. Isolated glial cells were labelled with the following antibodies against surface markers: CD11b (Biolegend, Cat #101206), CD45 (Biolegend, Cat #147710), GFAP (Biolegend, Cat #837508) and MOG (Biorbyt, Cat #orb412341-FITC). Cells positive for CD11b and CD45Med were identified as microglia. Cells positive for GFAP and negative for CD45 and CD11b were identified as astrocytes. Cells sorted with MOG+CD11b− were identified as oligodendrocytes. Neurons were isolated from mouse brain using the Pierce Primary Neuron Isolation Kit (Thermo Scientific, Cat #88280). Briefly, the tissue homogenate from freshly dissected cortexes was suspended in an equal volume of ice cold HBSS (Sigma) and replaced with Neuronal Isolation Enzyme (with papain) in a 37° C. incubator for 30 minutes. After washing with HBSS, the tissue was cultured in a poly-D-lysine coated plate with Neuronal Culture Medium.\nWestern blotting. Cells were treated as indicated in individual Figure legends and whole cell extracts (WCE) were prepared in the radioimmunoprecipitation assay (RIPA) buffer (Sigma) with addition of protease and phosphatase inhibitors (Roche). Proteins were separated by 10% SDS-PAGE and transferred to polyvinylidene difluoride (PVDF) membranes (Bio-Rad Laboratories, Inc., Hercules, CA). Dual color precision protein MW markers (BioRad) were separated in parallel. Antibodies were purchased as follows: cleaved-caspase-3 (ab214430), cleaved PARP (ab203467) and GAPDH (ab9657, Abcam) from Abcam; S100A8 (47310) and S100a9 (72590) from Cell Signaling; and Ltf (GTX81085) from GeneTex. The secondary antibodies conjugated to Fluors Alex-488 (A32723) or Alex-594 (A11012) were purchased from Invitrogen (Eugene, OR). The bands were visualized on the Odyssey Imager (LiCor Inc, Lincoln, NE)."}, "microglial cells [7]": {"test_system": "microglial cells", "test": "FACS analysis of apoptotic bodies (ABs) in supernatants of cultured microglial cells", "assay_type": "cell-based, mouse", "conditions": "microglial cells isolated from young mice", "protocol": "Flow cytometry. Isolated cells were incubated with blocking solution (0.5% BSA/PBS) for 15 minutes at 4° C. For surface staining, cells were stained with various antibodies at room temperature for 1 hour and then washed with PBS. Washed cells were stained for 40 minutes at 4° C. with the appropriate fluorochrome-conjugated antibodies in PBS with 2% FBS. Data were acquired using a BD FACSCalibur flow cytometer (BD Biosciences, San Jose, CA) and analyzed using FlowJo software (Tree Star Inc., Ashland, OR). The following antibodies purchased from Biolegend were used for flow cytometry: anti-CD11b (101208), anti-CD45 (103112) and FITC Annexin V (640945). For the ABs analysis, extracellular vesicles were collected. To recognize the ABs, as described previously, size gates set based on forward scatter (FSC) were applied in combination with Annexin V staining. From these vesicles total ABs were detected using Annexin V staining events.\nIsolation of apoptotic bodies. Apoptotic bodies (ABs) were isolated from culture supernatants as previously described. Briefly, cell culture medium was harvested and cells were removed by pelleting at 335×g for 10 minutes. To remove cell-debris, supernatants were centrifuged at 1,000×g for 10 minutes, followed by another centrifugation at 2,000×g for 30 minutes to pellet ABs. Pelleted ABs were resuspended and washed with PBS."}, "[8]": {"conditions": "added to ex vivo cultured microglial cells from young mice"}},
  "data": [
    {"compound": "S100p1: CTGTGGGCAG CTGGCAAGC TTTCCTCTATAAAAGCAGCTGACACTTAGCCTCACAT (SEQ ID NO: 7), −57 . . . −1 (DNA CTGTGGGCAGCTGGCCAAGCTTTCCTCTATAAAAGCAGCTGACACTTAGCCTCACAT; DNA, backbone and methylation of C not given here; further chemistry not fully specified)", "values": [
      {"measurement": "interaction with IAA (SPR)", "setting": "[1]", "value": "targeted by IAA"},
      {"measurement": "mobility shift on native PAGE after incubation with IAA", "setting": "[2]", "value": "mobility shifted"}
    ]},
    {"compound": "S100p1-G-Mut: CTGTATGCAA TTGGCCAAGC (SEQ ID NO: 9), mutant control oligo (DNA CTGTATGCAATTGGCCAAGC; DNA, backbone and methylation of C not given here; further chemistry not fully specified)", "values": [
      {"measurement": "IAA in CSF (HPLC)", "setting": "[3]", "value": "not seen"},
      {"measurement": "memory and spatial learning (MWM)", "setting": "[4]", "value": "not seen"}
    ]},
    {"compound": "NCCCC(=O)O", "note": "[GABA]", "values": [
      {"measurement": "metabolite within the Bio-S100p1-G complex (LC-MS)", "setting": "[5]", "value": "did not find"}
    ]},
    {"compound": "hS100A8p: AGCTGTGGGCAGCTGGCCAAGCCTAA (SEQ ID NO: 39), human S100A8 promoter oligo (DNA, backbone and methylation of C not given here; further chemistry not fully specified)", "values": [
      {"measurement": "mobility shift on native PAGE after incubation with IAA", "setting": "[2]", "value": "binds"}
    ]},
    {"compound": "C/C=C/C(=O)O", "note": "[CA, crotonic acid]", "values": [
      {"measurement": "effect on the microglia (cleaved caspase-3)", "setting": "microglial cells [6]; S100A8 deficient microglia cells", "value": "abolished"},
      {"measurement": "cleaved caspase-3", "setting": "microglial cells [6]; [8]", "value": "increasing"},
      {"measurement": "cleaved poly(-ADP-ribose) polymerase (PARP)", "setting": "microglial cells [6]; [8]", "value": "increasing"},
      {"measurement": "ABs released into the culture supernatants", "setting": "microglial cells [7]", "value": "increase"}
    ]},
    {"compound": "NCCCC[C@H](N)C(=O)O", "note": "[lysine]", "values": [
      {"measurement": "metabolite within the Bio-S100p1-G complex (LC-MS)", "setting": "[5]", "value": "did not find"}
    ]}
  ]
}
